Measurements reported in patent US20240197891A1, “PHARMACEUTICAL COMPOSITIONS COMPRISING POH DERIVATIVES” (UNIVERSITY OF SOUTHERN CALIFORNIA, priority 2021, published 2024).

Legend:
[1] = system: TMZ sensitive (U251) cells; test: Colony forming assay, TMZ sensitive U251 cells; assay type: cell-based, human; details: TMZ sensitive U251 cells
Experimental: Colony forming assays were carried out after cells were treated with TMZ alone, POH alone, and the TMZ-POH conjugate. […] Cancer Lett. 2011 Mar. 28; 302(2):100-8.

[2] = system: cyclobutane pyrimidine dimers (CPD) and pyrimidine (6-4) pyrimidone photoproducts (6-4PP); test: DNA damage (6-4PP and CPD) in UV exposed mouse skin; assay type: in vivo; details: skin DNA following UV exposure
Description: FIGS. 26A and 26B show the DNA damage that occurs following UV exposure with and without POH-LA conjugate treatment. Upon euthanasia of animals, skin tissues were collected from the back of the animals, fixed in formalin, and processed for analysis. Absorption of ultraviolet (UV) light produces two predominant types of DNA damage, cyclobutane pyrimidine dimers (CPD) and pyrimidine (6-4) pyrimidone photoproducts (6-4PP). UV DNA Damage standards for comparison to UV exposed mouse skin extracted DNA were used. Both the standard and sample DNA are first heat denatured before they are adsorbed onto a 96-well DNA high-binding plate. The 6-4PP (FIG. 26A) and CPDs (FIG. 26B) present in the sample or standard are probed with an anti6-4PP or CPD antibody, followed by an HRP conjugated secondary antibody. The 6-4PP or CPD content in an unknown sample is determined by comparing with a standard curve that is prepared from predetermined CPD-DNA standards 1,000-1.56 ng/ml). […] The skin has important barrier, sensory, and immune functions, contributing to the health and integrity of the organism. […]
FIGS. 26A and 26B show the DNA damage that occurs following UV exposure with and without POH-LA conjugate treatment. […] The 6-4PP or CPD content in an unknown sample is determined by comparing with a standard curve that is prepared from predetermined CPD-DNA standards 1,000-1.56 ng/ml).

[3] = system: follistatin, α6β4 integrin, Yap1; test: Staining of the skin for follistatin, α6β4 integrin and Yap1; assay type: in vivo
Description: Activins are members of the transforming growth factor-β family of growth and differentiation factors. The biological activity of activins is regulated by the secreted glycoprotein follistatin, which sequesters activins and thus inhibits their biological activities. Follistatin controls keratinocyte proliferation in skin wounds. Most importantly, it has been shown that limited activation of activin in keratinocytes is beneficial for the wound healing process. FIGS. 27A-C show the staining of the skin with activation of follistatin with POH-LA conjugate (FIG. 27A), POH, (FIG. 27B), and Linoleic Acid (FIG. 27C).
FIGS. 27D-F show the staining of the skin with activation of α6β4 integrin with POH-LA conjugate (FIG. 27D), POH, (FIG. 27E), and Linoleic Acid (FIG. 27F).
Yap1 is a critical modulator of epidermal stem cell proliferation and tissue expansion. α-catenin controls Yap1 activity and phosphorylation by modulating its interaction with 14-3-3 and the PP2A phosphatase. This aids in the identification of Yap1 as a determinant of the proliferative capacity of epidermal stem cells and as an important effector of a “crowd control” molecular circuitry in mammalian skin. FIGS. 27G-I show the staining of the skin with activation of Yap1 with POH-LA conjugate (FIG. 27G), POH, (FIG. 27H), and Linoleic Acid (FIG. 27I).

With C=C(C)[C@@H]1CC=C(CO)CC1 [POH, perillyl alcohol] the “cytotoxicity (colony forming assay)” value [1] was “demonstrated cytotoxicity”.

With C=C(C)[C@@H]1CC=C(COC(=O)CCCCCCC/C=C\C/C=C\CCCCC)CC1 [POH-LA conjugate, Octadeca-9,12-dienoic acid 4-isopropenyl-cyclohex-1-enylmethyl ester] the “DNA damage (6-4PP and CPD content)” value [2] was “less DNA damage”, the “activation of cellular proteins” value [3] was “enhance the activation of cellular proteins” and the “skin regeneration via stem cell activation” value [3] was “stimulate skin regeneration via stem cell activation”.
